Reference: ChEMBL document CHEMBL5209585, “FFN206 based assay for SLC18A2 using HEK-293 SLC18A2 OE cells” (2022)

Target: Synaptic vesicular amine transporter (Homo sapiens, UniProt Q05940)
Assay: Substrate uptake and inhibition of the Vesicular Amine Transporter 2 (VMAT2, SLC18A2) as assessed by uptake of a fluorescent substrate (FFN206) in HEK-293 JumpIN-SLC18A2 cells (PubChem AID: 1794817)
Format: functional, cell-based, HEK293

Synaptic vesicular amine transporter, sequence (Q05940 whole entry): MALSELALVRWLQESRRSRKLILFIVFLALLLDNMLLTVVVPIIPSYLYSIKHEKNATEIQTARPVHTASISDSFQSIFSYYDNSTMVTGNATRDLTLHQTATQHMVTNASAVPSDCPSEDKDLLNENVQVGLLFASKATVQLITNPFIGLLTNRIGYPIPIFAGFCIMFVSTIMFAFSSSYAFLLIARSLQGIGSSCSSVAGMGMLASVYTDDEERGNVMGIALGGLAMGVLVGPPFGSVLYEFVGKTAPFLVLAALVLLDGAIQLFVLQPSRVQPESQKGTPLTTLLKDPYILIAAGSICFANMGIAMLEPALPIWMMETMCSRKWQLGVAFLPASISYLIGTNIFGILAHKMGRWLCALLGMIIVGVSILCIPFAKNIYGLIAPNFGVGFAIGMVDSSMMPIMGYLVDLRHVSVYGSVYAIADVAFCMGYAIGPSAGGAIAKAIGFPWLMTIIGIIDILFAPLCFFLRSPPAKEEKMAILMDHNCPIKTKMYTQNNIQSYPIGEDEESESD

| SMILES | EC50 | IC50 |
| --- | --- | --- |
| CNc1ccc2c(CCN)cc(=O)oc2c1 | 3560 nM |  |
| COc1cc2c(cc1OC)C1CC(=O)C(CC(C)C)CN1CC2 (configuration not stated) [TETRABENAZINE] |  | 19.8 nM |
